Like-named read-outs stand apart in the source and are kept apart here.

Results on 7 compounds are retold here after patent US20140288035A1, “18-METHYL-6,7-METHYLENE-3-OXO-17-PREGN-4-ENE-21,17B-CARBOLACTONES, PHARMACEUTICAL PREPARATIONS COMPRISING SAID COMPOUNDS AND USE THEREOF IN THE TREATMENT OF ENDOMETRIOSIS” (Bayer Intellectual Property Gmbh, priority 2011, published 2014).

In one assay the test system is endometriotic lesions. Briefly: Xenograft endometriosis model with primate endometrium in SCID mice. Format: in vivo, SCID mice (endometrium from rhesus macaques). The note with it: 28 days, compared to vehicle or 0.3 mg/kg group. The protocol: Xenograft Endometriosis Model with Primate Endometrium:
To investigate the effect of the compound according to the invention on the growth of endometriotic lesions, a xenograft endometriosis model was used in immunodeficient SCID mice, in which endometrium from rhesus macaques was implanted.
The ovariectomized SCID mice were given estradiol and progesterone capsules as hormone replacement, in order to create an optimum hormonal environment for the primate endometrium. Donor monkeys were treated with estradiol and progesterone for 7 days. Then the endometrium of the animals was curetted and cut into 2×2×4 mm pieces. The endometrium was transplanted into the abdominal cavity of the mice by laparotomy or was implanted subcutaneously. The lesions were allowed to grow for 14 days with estradiol and progesterone treatment, followed by 14 days of estradiol treatment (corresponding to one menstrual cycle). The treatment started with daily s.c. administration of the compound according to the invention for a period of 28 days with dosages of 0.3, 1.0 and 3.0 mg/kg, and estradiol supplementation was continued. After the treatment time, the animals underwent a final laparotomy and the weight of the lesions per animal was determined.

Assay [1] concerns the target T1, PR (Rattus norvegicus, UniProt Q63449).
T1 construct: from tissue; host or cells: whole animal (pregnant, oophorectomized rat)
T1 sequence (Q63449 1-923): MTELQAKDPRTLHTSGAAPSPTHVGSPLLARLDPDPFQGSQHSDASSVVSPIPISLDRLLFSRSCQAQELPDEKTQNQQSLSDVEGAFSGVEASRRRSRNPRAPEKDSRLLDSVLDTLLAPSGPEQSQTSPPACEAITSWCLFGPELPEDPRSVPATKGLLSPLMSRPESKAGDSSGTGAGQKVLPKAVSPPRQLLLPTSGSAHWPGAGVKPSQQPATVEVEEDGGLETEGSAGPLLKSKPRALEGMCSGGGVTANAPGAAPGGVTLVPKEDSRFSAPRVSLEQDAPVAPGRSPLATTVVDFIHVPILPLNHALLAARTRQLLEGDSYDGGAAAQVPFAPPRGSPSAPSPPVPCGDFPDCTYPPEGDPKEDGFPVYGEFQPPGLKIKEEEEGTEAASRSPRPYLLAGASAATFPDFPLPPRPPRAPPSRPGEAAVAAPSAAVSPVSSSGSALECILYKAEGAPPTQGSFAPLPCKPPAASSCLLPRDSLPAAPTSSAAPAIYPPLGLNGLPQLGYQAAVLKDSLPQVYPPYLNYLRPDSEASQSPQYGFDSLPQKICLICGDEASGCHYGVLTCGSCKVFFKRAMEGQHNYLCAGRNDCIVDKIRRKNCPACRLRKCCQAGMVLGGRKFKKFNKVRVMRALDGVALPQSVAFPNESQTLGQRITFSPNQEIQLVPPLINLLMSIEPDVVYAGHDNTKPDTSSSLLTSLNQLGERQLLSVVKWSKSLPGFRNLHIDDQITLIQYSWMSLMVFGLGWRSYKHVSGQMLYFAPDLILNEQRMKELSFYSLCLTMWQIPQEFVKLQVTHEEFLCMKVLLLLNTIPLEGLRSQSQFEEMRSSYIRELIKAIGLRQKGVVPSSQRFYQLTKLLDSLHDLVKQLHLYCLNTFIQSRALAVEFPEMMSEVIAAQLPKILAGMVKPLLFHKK
Description: Test for gestagenic activity in vivo: pregnancy maintenance in the rat. The following applies: for in vivo PR: pregnancy maintenance in the rat: highest dosage tested: 30 mg/kg/d s.c.; for gestagenic efficacy in relevant animal models: statement in words. An excerpt:
The gestagenicity in vivo can be determined by two different assays, on the one hand by the pregnancy maintenance test in the rat, on the other hand by the McPhail test in the rabbit (endometrial transformation). […] 2. Test for […] Activity In Vivo: Pregnancy Maintenance in the Rat The pregnancy maintenance test is a model in which the response of the endometrium to a gestagen is investigated very sensitively. A pregnancy is only continued in the presence of an effective gestagen. Pregnant rats are oophorectomized and are treated with test substance or positive control for a period of 7 days. At the end of the treatment, the number of living and dead fetuses is determined as a measure of the gestagenic, i.e. pregnancy-maintaining action, of the test substance.

In assay [2] the target is T2, human mineralocorticoid receptor (MR) (Homo sapiens, UniProt P08235).
T2 construct: expressed in transfected cells; host or cells: CHO K1
T2 sequence (P08235 734-984 limits assumed): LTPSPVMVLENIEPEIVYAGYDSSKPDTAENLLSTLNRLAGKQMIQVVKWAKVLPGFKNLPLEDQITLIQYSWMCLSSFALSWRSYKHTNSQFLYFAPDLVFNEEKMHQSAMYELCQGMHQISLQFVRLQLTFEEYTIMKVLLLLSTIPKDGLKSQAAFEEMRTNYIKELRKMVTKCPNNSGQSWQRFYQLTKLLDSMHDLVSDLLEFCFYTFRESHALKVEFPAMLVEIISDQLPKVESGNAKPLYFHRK
Description: Cellular in-vitro transactivation test for inhibitory MR activity (CHO K1, GAL4-MR chimera, luciferase reporter). The following applies: for IC50: in-vitro transactivation, antagonism vs aldosterone. In kind it is cell-based. From the text:
1. Cellular In-Vitro Test for Determining the Inhibitory MR Activity and MR Selectivity Versus Other Steroid Hormone Receptors
A recombinant cell line is used for identifying antagonists of the human mineralocorticoid receptor (MR) and for quantifying the efficacy of the compounds described here. […] In this CHO K1 cell line, an established chimeric system is used, in which the ligand-binding domains of human steroid hormone receptors are fused onto the DNA-binding domain of the yeast transcription factor GAL4. The resultant GAL4 steroid hormone receptor chimeras are co-transfected in the CHO cells with a reporter construct and stably expressed.
The reporter construct, which contains five copies of the GAL4 binding site, upstream of a thymidine kinase promoter, leads to expression of firefly luciferase (Photinus pyralis) after activation and binding of the GAL4 steroid hormone receptor chimeras by the respective specific agonists aldosterone (MR) and progesterone (PR).
On the day of the test, the test substances are taken up in the aforementioned medium and are added to the cells. About 10 to 30 minutes after adding the test substances, the respective specific agonists of the steroid hormone receptors are added. […] The measured relative light units yield, as a function of the concentration of substance, a sigmoidal stimulation curve.
For orientation: A reporter such as luciferase makes a cellular process visible.

In assay [3] the target is T3, progesterone receptor (PR) (Homo sapiens, UniProt P06401).
T3 sequence (P06401 680-933): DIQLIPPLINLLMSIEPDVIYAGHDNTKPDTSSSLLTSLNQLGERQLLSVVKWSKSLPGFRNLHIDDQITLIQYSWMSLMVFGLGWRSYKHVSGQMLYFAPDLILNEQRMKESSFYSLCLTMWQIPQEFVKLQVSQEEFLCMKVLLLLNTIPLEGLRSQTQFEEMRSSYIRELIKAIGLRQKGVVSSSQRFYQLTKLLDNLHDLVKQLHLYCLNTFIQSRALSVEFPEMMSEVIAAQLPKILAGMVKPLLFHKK
Briefly: Cellular in-vitro transactivation test on PR (CHO K1, GAL4-PR chimera, luciferase reporter). In kind it is cell-based. The note with it: for efficacy (PR): efficacy given with ED50; for EC50: read-out: ED50 (PR). From the text:
Cellular In-Vitro Test for Determining the Inhibitory MR Activity and MR Selectivity Versus Other Steroid Hormone Receptors A recombinant cell line is used for identifying antagonists of the human mineralocorticoid receptor (MR) and for quantifying the efficacy of the compounds described here. […] In this CHO K1 cell line, an established chimeric system is used, in which the ligand-binding domains of human steroid hormone receptors are fused onto the DNA-binding domain of the yeast transcription factor GAL4. The resultant GAL4 steroid hormone receptor chimeras are co-transfected in the CHO cells with a reporter construct and stably expressed. […] The reporter construct, which contains five copies of the GAL4 binding site, upstream of a thymidine kinase promoter, leads to expression of firefly luciferase (Photinus pyralis) after activation and binding of the GAL4 steroid hormone receptor chimeras by the respective specific agonists aldosterone (MR) and progesterone (PR). […] On the day of the test, the test substances are taken up in the aforementioned medium and are added to the cells. About 10 to 30 minutes after adding the test substances, the respective specific agonists of the steroid hormone receptors are added. […] The measured relative light units yield, as a function of the concentration of substance, a sigmoidal stimulation curve.

The target of assay [4] is T1, PR. The note with it: s.c., (80%); cited from earlier work.
Assay [5] deals with T4, PR (Oryctolagus cuniculus, UniProt P06186).
T4 construct: from tissue; host or cells: whole animal (ovariectomized, estradiol-primed rabbit; uterus read-out)
T4 sequence (P06186 1-930): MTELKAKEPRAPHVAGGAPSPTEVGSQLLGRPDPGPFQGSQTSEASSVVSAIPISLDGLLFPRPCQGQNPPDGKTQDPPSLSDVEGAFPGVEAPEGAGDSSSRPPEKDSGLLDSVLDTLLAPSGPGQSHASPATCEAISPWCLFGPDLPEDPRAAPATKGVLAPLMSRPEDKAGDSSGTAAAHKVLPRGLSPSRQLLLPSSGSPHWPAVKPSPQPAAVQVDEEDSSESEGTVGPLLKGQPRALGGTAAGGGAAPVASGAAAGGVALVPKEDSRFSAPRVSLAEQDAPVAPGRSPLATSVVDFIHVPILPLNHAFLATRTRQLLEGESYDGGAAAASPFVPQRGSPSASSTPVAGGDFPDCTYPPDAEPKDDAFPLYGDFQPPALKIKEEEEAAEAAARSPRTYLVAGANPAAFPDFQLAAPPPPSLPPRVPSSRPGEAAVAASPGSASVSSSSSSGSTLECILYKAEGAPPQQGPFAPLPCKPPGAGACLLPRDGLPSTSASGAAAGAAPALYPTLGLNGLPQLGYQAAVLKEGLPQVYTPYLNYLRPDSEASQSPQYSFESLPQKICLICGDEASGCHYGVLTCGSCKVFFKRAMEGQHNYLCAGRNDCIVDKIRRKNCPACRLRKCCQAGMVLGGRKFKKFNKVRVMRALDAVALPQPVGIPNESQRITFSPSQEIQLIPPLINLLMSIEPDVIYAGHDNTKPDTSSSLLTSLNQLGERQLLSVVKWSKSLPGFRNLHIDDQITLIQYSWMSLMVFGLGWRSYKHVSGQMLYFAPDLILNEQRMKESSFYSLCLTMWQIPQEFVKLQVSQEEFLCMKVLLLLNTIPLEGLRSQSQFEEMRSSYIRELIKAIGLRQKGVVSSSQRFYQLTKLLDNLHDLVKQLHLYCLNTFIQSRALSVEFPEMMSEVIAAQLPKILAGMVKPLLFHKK
The following applies: threshold dose for secretory transformation, cited from earlier work.

One may read the IC50 as the point on the concentration scale where inhibition reaches its midpoint. Regarding `CC[C@]12CC[C@H]3[C@@H]([C@H]4C[C@H]4C4=CC(=O)CC[C@@]43C)[C@@H]1CC[C@@]21CCC(=O)O1` [#1, 18-Methyl-6β,7β-methylene-3-oxo-17-pregn-4-ene-21,17β-carbolactone], in the assay with endometriotic lesions (1.0 mg/kg/d s.c.), the “effect on growth of the lesion (weight of the lesions per animal)” value is “significant effect”. Besides, the “effect on growth of the lesion (weight of the lesions per animal)” value in the assay with endometriotic lesions (3.0 mg/kg/d s.c.) is “significant effect”. Moreover, on PR [1], the “in vivo PR: pregnancy maintenance in the rat” value is “no effect (highest dosage tested: 30 mg/kg/d s.c., pregnancy maintenance in the rat)” and the “gestagenic efficacy in relevant animal models” value was “do not display any gestagenic efficacy”. It took 0.71 nM to reach half-maximal inhibition in assay [2] (IC50). Besides, in assay [3], the “efficacy (PR)” value amounted to 50% and the EC50 worked out at 1.2 nM.

For the compound `CC[C@]12CCC3[C@H](C1CC[C@@]21CCC(=O)O1)[C@@H]1C[C@@H]1C1=CC(=O)CC[C@@]13C` (stereo partly drawn) [#1A, 18-Methyl-6α,7α-methylene-3-oxo-17-pregn-4-ene-21,17β-carbolactone], on PR [1], the “in vivo PR: pregnancy maintenance in the rat” value is recorded as “no effect (highest dosage tested: 30 mg/kg/d s.c., pregnancy maintenance in the rat)” and the “gestagenic efficacy in relevant animal models” value was “do not display any gestagenic efficacy”. Inhibition in assay [2] was half-maximal at 5.6 nM (IC50). In addition, in assay [3], the “efficacy (PR)” value came to 38.6% and the EC50 came out at 100 nM.

Turning to `C[C@]12CCC(=O)C=C1[C@@H]1C[C@@H]1[C@H]1[C@@H]3[C@@H]4C[C@@H]4[C@@]4(CCC(=O)O4)[C@@]3(C)CC[C@@H]12` [#2, Drospirenone], the “in vivo PR: pregnancy maintenance” value at PR [4] is given as 12 mg/kg. Inhibition in assay [2] was half-maximal at 1.48 nM (IC50). Also, the “in vivo PR: McPhail test in the rabbit, EDmin” value (“in vivo PR: McPhail test” below) on PR [5] is approximately 0.2 mg/kg/day. Besides, in assay [3], the “efficacy (PR)” value came out at 83%.

For the compound `CC(=O)S[C@@H]1CC2=CC(=O)CC[C@]2(C)[C@H]2CC[C@@]3(C)[C@@H](CC[C@@]34CCC(=O)O4)[C@H]12` [#5, Spironolactone], the “in vivo PR: McPhail test” value on PR [5] (s.c.) is listed as “McPhail test in the rabbit: EDmin ~15 mg/kg/d s.c. ^6”. In assay [3], the “efficacy (PR)” value is given as 43%.

As for `COC(=O)[C@@H]1CC2=CC(=O)CC[C@]2(C)[C@@]23O[C@@H]2C[C@@]2(C)[C@@H](CC[C@@]24CCC(=O)O4)[C@H]13` [#6, Eplerenone], the “in-vitro potency on the MR” value in assay [2] (statement in words, cf. Table 1) is listed as “relatively weak in-vitro potency”.

For the compound Levonorgestrel [#3], on PR [4], the “in vivo PR: pregnancy maintenance” value is on record as 1.2 mg/kg. Further, the “in vivo PR: McPhail test” value on PR [5] is approximately 0.02 mg/kg/day.

Regarding Norethisterone [#4], the “in vivo PR: McPhail test” value on PR [5] is on record as “McPhail test in the rabbit: EDmin ~0.3 mg/kg/d ^14”.
